Assay results from US8299048B2, “Hexahydrocyclopentyl[f]indazole sulfonamides and derivatives thereof as selective glucocorticoid receptor modulators” (Merck Sharp & Dohme Corp., priority 2008, dated 2012).

Molecular target: T1, human GR (Homo sapiens, UniProt P04150)
T1 sequence (P04150 1-777): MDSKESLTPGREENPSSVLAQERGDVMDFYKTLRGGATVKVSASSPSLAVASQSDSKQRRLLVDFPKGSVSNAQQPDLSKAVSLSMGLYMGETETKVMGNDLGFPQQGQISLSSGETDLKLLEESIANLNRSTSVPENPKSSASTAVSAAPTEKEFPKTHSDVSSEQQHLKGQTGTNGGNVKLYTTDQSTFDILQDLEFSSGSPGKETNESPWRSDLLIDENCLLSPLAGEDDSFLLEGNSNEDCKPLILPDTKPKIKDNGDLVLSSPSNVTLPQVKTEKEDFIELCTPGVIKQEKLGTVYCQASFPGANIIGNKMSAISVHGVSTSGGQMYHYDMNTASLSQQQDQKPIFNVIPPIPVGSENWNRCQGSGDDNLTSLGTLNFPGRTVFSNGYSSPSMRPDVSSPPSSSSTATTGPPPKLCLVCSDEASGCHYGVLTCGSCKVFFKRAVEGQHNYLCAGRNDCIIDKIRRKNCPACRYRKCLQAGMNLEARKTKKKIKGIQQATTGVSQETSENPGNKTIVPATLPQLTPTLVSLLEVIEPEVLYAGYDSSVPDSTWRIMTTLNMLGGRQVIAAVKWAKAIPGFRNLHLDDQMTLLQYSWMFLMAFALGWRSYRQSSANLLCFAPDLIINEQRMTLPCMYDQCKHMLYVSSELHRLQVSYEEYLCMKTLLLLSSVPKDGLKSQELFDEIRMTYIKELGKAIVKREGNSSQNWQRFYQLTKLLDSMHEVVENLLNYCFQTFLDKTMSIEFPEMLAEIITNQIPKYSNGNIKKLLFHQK
Assay: Trans-Activation Modulation of Glucocorticoid Receptor (GRAMMER), MMTV-LUC reporter, agonist mode
Assay type: cell-based
Set-up: endogenous in cells
Settings: for Emax: A549, A549 cells, maximum activity, read-out: Transactivation A549 Cells GRAMMER Emax; for EC50: A549 cells, inflection point, read-out: Transactivation A549 Cells GRAMMER IP
How it was run: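 Readout is luciferase from a modified MMTV LTR promoter after 24 h compound exposure alongside 10 nM dexamethasone (100% activity reference), DMSO ≤1%.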

SMILES | Emax [%] | EC50 [nM]
C[C@]12Cc3cnn(-c4ccc(F)cc4)c3C=C1CC[C@@H]2CN(CC1CC1)S(=O)(=O)/C=C/c1ccccc1 [Example 13, (E)-N-(cyclopropylmethyl)-N-{[(4αR,5S)-1-(4-fluorophenyl)-4α-methyl-1,4,4α,5,6,7-hexahydrocyclopenta[f]indazol-5-yl]methyl}-2-phenylethylenesulfonamide] | 8.3 | 82.9
CNC(=O)Nc1ccc(S(=O)(=O)N(CC2CC2)C[C@H]2CCC3=Cc4c(cnn4-c4ccc(F)cc4)C[C@@]32C)c(Cl)c1 [Example 14, 2-chloro-N-(cyclopropylmethyl)-N-{[(4αR,5S)-1-(4-fluorophenyl)-4α-methyl-1,4,4α,5,6,7-hexahydrocyclopenta[f]indazol-5-yl]methyl}-4-{[(methylamino)carbonyl]amino}-benzenesulfonamide] | 25.2 | 344
COC(=O)c1ccccc1S(=O)(=O)N(CC1CC1)C[C@H]1CCC2=Cc3c(cnn3-c3ccc(F)cc3)C[C@@]21C [Example 18, methyl 2-[((cyclopropylmethyl){[(4αR,5S)-1-(4-fluorophenyl)-4α-methyl-1,4,4α,5,6,7-hexahydrocyclopenta[f]indazol-5 yl]methyl}amino)sulfonyl]benzoate] | 20 | 394
C[C@]12Cc3cnn(-c4ccc(F)cc4)c3C=C1CC[C@@H]2CN(CC1CC1)S(=O)(=O)Cc1ccccc1 [Example 21, N-(cyclopropylmethyl)-N-{[(4αR,5S)-1-(4-fluorophenyl)-4α-methyl-1,4,4α,5,6,7-hexahydrocyclopenta[f]indazol-5-yl]methyl}-1-phenylmethanesulfonamide] | 33.5 | 519

Further lines, results first:

Emax [%] | EC50 [nM] | SMILES
27.6 | 292 | C[C@]12Cc3cnn(-c4ccc(F)cc4)c3C=C1CC[C@@H]2CN(CC1CC1)S(=O)(=O)c1ccc(F)c(Cl)c1 [Example 15, 3-chloro-N-(cyclopropylmethyl)-4-fluoro-N-{[(4αR,5S)-1-(4-fluorophenyl)-4α-methyl-1,4,4α,5,6,7-hexahydrocyclopenta[f]indazol-5-yl]methyl}benzenesulfonamide]
53 | 254 | C[C@]12Cc3cnn(-c4ccc(F)cc4)c3C=C1CC[C@@H]2CN(CCC#N)S(=O)(=O)c1ccccc1F [Example 16, N-(2-cyanoethyl)-2-fluoro-N-{[(4αR,5S)-1-(4-fluorophenyl)-4α-methyl-1,4,4α,5,6,7-hexahydrocyclopenta[f]indazol-5-yl]methyl}benzenesulfonamide]
37.3 | 220 | C[C@]12Cc3cnn(-c4ccc(F)cc4)c3C=C1CC[C@@H]2CN(CCO)S(=O)(=O)c1ccccc1F [Example 17, 2-fluoro-N-{[(4αR,5S)-1-(4-fluorophenyl)-4α-methyl-1,4,4α,5,6,7-hexahydrocyclopenta[f]indazol-5-yl]methyl}-N-(2-hydroxyethyl)benzenesulfonamide]
20.6 | 1190 | C[C@]12Cc3cnn(-c4ccc(F)cc4)c3C=C1CC[C@@H]2CN(CCO)S(=O)(=O)c1ccc(F)c(Cl)c1 [Example 19, 3-chloro-4-fluoro-N-{[(4αR,5S)-1-(4-fluorophenyl)-4α-methyl-1,4,4α,5,6,7-hexahydrocyclopenta[f]indazol-5-yl]methyl}-N-(2-hydroxyethyl)benzenesulfonamide]
68.1 | 910 | C[C@]12Cc3cnn(-c4ccc(F)cc4)c3C=C1CC[C@@H]2CN(CC#N)S(=O)(=O)c1ccc(F)c(Cl)c1 [Example 20, 3-chloro-N-(cyanomethyl)-4-fluoro-N-{[(4αR,5S)-1-(4-fluorophenyl)-4α-methyl-1,4,4α,5,6,7-hexahydrocyclopenta[f]indazol-5-yl]methyl}benzenesulfonamide]
2.7 | 8790 | Cc1oncc1S(=O)(=O)N(CC#N)C[C@H]1CCC2=Cc3c(cnn3-c3ccc(F)cc3)C[C@@]21C [Example 23, N-(cyanomethyl)-N-{[(4αR,5S)-1-(4-fluorophenyl)-4α-methyl-1,4,4α,5,6,7-hexahydrocyclopenta[f]indazol-5-yl]methyl}-5-methylisoxazole-4-sulfonamide]
